The results in this text go back to ChEMBL document CHEMBL5154901, “Development of Predictive Classification Models for Whole Cell Antimycobacterial Activity of Benzothiazinones” (J Med Chem, 2022).

For one data set, the system named is Mycolicibacterium vaccae. Kind of data set: Antimycobacterial activity against Mycobacterium vaccae (JMRC:STI:10670) assessed as reduction in bacterial growth incubated for 42 hrs by serial dilution method. The format is functional. Particulars: Mycolicibacterium vaccae, JMRC:STI:10670, read-out: MIC.
Data set [1] can be described thus: Metabolic stability in human liver microsomes at 20 uM assessed as half life measured up to 90 mins by LC-HRMS analysis. The format is ADME, Microsome.
A short description of data set [2]: Metabolic stability in human liver microsomes at 20 uM assessed as intrinsic clearance measured up to 90 mins by LC-HRMS analysis. The note with it: read-out: CLH. The format is ADME, Microsome.
The nature of data set [3]: Cytotoxicity against human HeLa cells assessed as reduction in cell viability incubated for 72 hrs by methylene blue staining based colorimetric assay. It counts as toxicity.

Values after ≈ are worked out from the molar mass of the structure shown.

Take `N#Cc1ccccc1N1CCN(c2nc(=O)c3cc(C(F)(F)F)cc([N+](=O)[O-])c3s2)CC1`: the MIC in the data set on Mycolicibacterium vaccae came to 0.0087 µM (≈ 0.00401 µg/mL). The half-life at 20 µM in data set [1] is 99 min. For the same molecule, the microsomal CLint at 20 µM in data set [2] was found to be 14.1 µL/min/mg. In addition, the CC50 at 72 h in data set [3] is above 108 µM.
For `O=C(O)Cc1ccccc1Nc1c(Cl)cccc1Cl` [DICLOFENAC], the half-life at 20 µM in data set [1] was 6.3 min. The microsomal CLint at 20 µM in data set [2] is 222 µL/min/mg.
`O=c1nc(N2CCN(C(c3ccccc3)C(F)(F)F)CC2)sc2c([N+](=O)[O-])cc(C(F)(F)F)cc12` (centres undefined): in data set [1], the half-life at 20 µM was 88.9 min. Besides, the microsomal CLint at 20 µM in data set [2] was found to be 22.4 µL/min/mg.
As for `O=c1nc(N2CC[C@H](c3ccccc3)[C@@H](O)C2)sc2c([N+](=O)[O-])cc(C(F)(F)F)cc12`, the MIC in the data set on Mycolicibacterium vaccae is 0.0069 µM (≈ 0.00311 µg/mL). The half-life at 20 µM in data set [1] amounted to 52.5 min. Further, the microsomal CLint at 20 µM in data set [2] amounted to 26.7 µL/min/mg. Further, the CC50 at 72 h in data set [3] was 73.1 µM.
As for `N#Cc1cccc(CN2CCN(c3nc(=O)c4cc(C(F)(F)F)cc([N+](=O)[O-])c4s3)CC2)c1`, in data set [1], the half-life at 20 µM was 60.3 min. The microsomal CLint at 20 µM in data set [2] was 23.2 µL/min/mg.
Consider `O=c1nc(N2CCN(S(=O)(=O)c3ccc(OC(F)(F)F)cc3)CC2)sc2c([N+](=O)[O-])cc(C(F)(F)F)cc12`, for which the MIC in the data set on Mycolicibacterium vaccae is 0.0274 µM (≈ 0.016 µg/mL). In data set [3], the CC50 at 72 h came out at 31.5 µM.
In the case of `O=c1nc(N2CCC(CCO)CC2)sc2c([N+](=O)[O-])cc(C(F)(F)F)cc12`, in the data set with Mycolicibacterium vaccae, the MIC came out at 0.992 µM (≈ 0.4 µg/mL). Further, in data set [3], the CC50 at 72 h was 91.5 µM.
For `CN(CC(F)(F)CO)c1nc(=O)c2cc(C(F)(F)F)cc([N+](=O)[O-])c2s1` the same measures were 0.0626 µM (≈ 0.025 µg/mL) and 109 µM.
`O=c1nc(N2CCN(CC(F)(F)c3ccc(F)c(F)c3)CC2)sc2c([N+](=O)[O-])cc(C(F)(F)F)cc12`: the half-life at 20 µM in data set [1] stood at 45.3 min. In data set [2], the microsomal CLint at 20 µM was determined as 30.9 µL/min/mg.
`O=c1nc(N2CCn3cc(-c4ccc(F)cc4)nc3C2)sc2c([N+](=O)[O-])cc(C(F)(F)F)cc12`: the MIC with Mycolicibacterium vaccae was found to be 0.0049 µM (≈ 0.00241 µg/mL). In data set [1], the half-life at 20 µM turned out to be 54.6 min. In data set [2], the microsomal CLint at 20 µM was determined as 25.7 µL/min/mg. For the same molecule, the CC50 at 72 h in data set [3] is above 102 µM.
Consider `O=c1nc(N2CC[C@@H](c3ccccc3)[C@H](O)C2)sc2c([N+](=O)[O-])cc(C(F)(F)F)cc12`, for which the MIC in the data set on Mycolicibacterium vaccae was 0.0277 µM (≈ 0.0125 µg/mL). The CC50 at 72 h in data set [3] is above 93 µM.
As for `O=c1nc(N2CCN(CC(F)(F)c3ccccc3)CC2)sc2c([N+](=O)[O-])cc(C(F)(F)F)cc12`, in the data set on Mycolicibacterium vaccae, the MIC stood at 0.016 µM (≈ 0.00801 µg/mL). For the same molecule, in data set [3], the CC50 at 72 h is above 100 µM.
With `CCCCCCN(C)c1nc(=O)c2cc(C(F)(F)F)cc([N+](=O)[O-])c2s1`, the MIC in the data set on Mycolicibacterium vaccae was determined as 0.0321 µM (≈ 0.0125 µg/mL). The CC50 at 72 h in data set [3] turned out to be 75.5 µM.
For the molecule `O=c1nc(N2CCC(OC3CCN(CC(F)(F)F)CC3)CC2)sc2c([N+](=O)[O-])cc(C(F)(F)F)cc12`, in the data set with Mycolicibacterium vaccae, the MIC stood at 0.0115 µM (≈ 0.00622 µg/mL). Further, the half-life at 20 µM in data set [1] worked out at 40.5 min. The microsomal CLint at 20 µM in data set [2] worked out at 34.5 µL/min/mg. The CC50 at 72 h in data set [3] was above 93 µM.
`O=c1nc(N2CC[C@@H](c3ccc(F)cc3)[C@H](CO)C2)sc2c([N+](=O)[O-])cc(C(F)(F)F)cc12`: the MIC in the data set on Mycolicibacterium vaccae stood at 0.0128 µM (≈ 0.00619 µg/mL). In data set [3], the CC50 at 72 h was 35.8 µM.
The like results for `O=c1nc(N2CCC(Oc3ccc(OC(F)(F)F)cc3)CC2)sc2c([N+](=O)[O-])cc(C(F)(F)F)cc12` were, in that order, 0.0579 µM (≈ 0.031 µg/mL) and above 93 µM.
Take `O=c1nc(N2CCN(CCc3ccccc3)CC2)sc2c([N+](=O)[O-])cc(C(F)(F)F)cc12`: the MIC in the data set with Mycolicibacterium vaccae is 0.0172 µM (≈ 0.00799 µg/mL). For the same molecule, the CC50 at 72 h in data set [3] is above 108 µM.
With `N#Cc1cccc(N2CCN(c3nc(=O)c4cc(C(F)(F)F)cc([N+](=O)[O-])c4s3)CC2)c1`, the MIC in the data set with Mycolicibacterium vaccae stood at 0.0347 µM (≈ 0.016 µg/mL). Also, the CC50 at 72 h in data set [3] is above 108 µM.
As for `O=c1nc(N2CCN(CC(F)(F)F)CC2)sc2c([N+](=O)[O-])cc(C(F)(F)F)cc12`, in the data set with Mycolicibacterium vaccae, the MIC came out at 0.007 µM (≈ 0.0031 µg/mL). The half-life at 20 µM in data set [1] turned out to be 103 min. The microsomal CLint at 20 µM in data set [2] was determined as 13.5 µL/min/mg. Also, the CC50 at 72 h in data set [3] was above 113 µM.
Consider `CN(CCO)c1nc(=O)c2cc(C(F)(F)F)cc([N+](=O)[O-])c2s1`, for which the MIC in the data set with Mycolicibacterium vaccae stood at 0.0716 µM (≈ 0.025 µg/mL). In data set [3], the CC50 at 72 h was found to be 80.2 µM.
For `CN(CCCCCCO)c1nc(=O)c2cc(C(F)(F)F)cc([N+](=O)[O-])c2s1`, the MIC in the data set with Mycolicibacterium vaccae came to 0.0308 µM (≈ 0.0125 µg/mL). Moreover, in data set [3], the CC50 at 72 h turned out to be 101 µM.
For `O=C(CN1CCN(c2nc(=O)c3cc(C(F)(F)F)cc([N+](=O)[O-])c3s2)CC1)NCc1ccccc1` the same measures were 0.0985 µM (≈ 0.05 µg/mL) and 57.1 µM.
The like results for `O=c1nc(N2CC[C@](O)(c3ccc(F)cc3)[C@@H](O)C2)sc2c([N+](=O)[O-])cc(C(F)(F)F)cc12` were, in that order, 0.0515 µM (≈ 0.025 µg/mL) and 73.3 µM.
`O=c1nc(N2CC[C@@H](c3ccc(F)cc3)[C@H](O)C2)sc2c([N+](=O)[O-])cc(C(F)(F)F)cc12`: the MIC in the data set with Mycolicibacterium vaccae is 0.0132 µM (≈ 0.0062 µg/mL). The CC50 at 72 h in data set [3] worked out at 68.4 µM.
The like results for `CN1CCC(CCCC2CCN(c3nc(=O)c4cc(C(F)(F)F)cc([N+](=O)[O-])c4s3)CC2)CC1` were, in that order, 0.124 µM (≈ 0.0618 µg/mL) and 20.1 µM.
The like results for `O=c1nc(N2CCN(Cc3ccncc3)CC2)sc2c([N+](=O)[O-])cc(C(F)(F)F)cc12` were, in that order, 0.0687 µM (≈ 0.031 µg/mL) and above 111 µM.
For `CN1CCN(C(=O)C(F)(F)C(F)(F)C(F)(F)C(=O)N2CCN(c3nc(=O)c4cc(C(F)(F)F)cc([N+](=O)[O-])c4s3)CC2)CC1` the same measures were 0.0376 µM (≈ 0.025 µg/mL) and above 75.2 µM.
Regarding `Cc1ccc([C@@]2(O)CCN(c3nc(=O)c4cc(C(F)(F)F)cc([N+](=O)[O-])c4s3)C2)cc1`, the MIC with Mycolicibacterium vaccae is 0.0554 µM (≈ 0.025 µg/mL). The CC50 at 72 h in data set [3] was above 111 µM.
Regarding `O=c1nc(N2CCN(Cc3ccc(OC(F)(F)F)cc3)CC2)sc2c([N+](=O)[O-])cc(C(F)(F)F)cc12`, the half-life at 20 µM in data set [1] came out at 43.6 min. Besides, the microsomal CLint at 20 µM in data set [2] stood at 32.1 µL/min/mg.
Turning to `CN(C(=O)CN1CCN(c2nc(=O)c3cc(C(F)(F)F)cc([N+](=O)[O-])c3s2)CC1)c1ccccc1`, the MIC with Mycolicibacterium vaccae stood at 0.0061 µM (≈ 0.0031 µg/mL). For the same molecule, the half-life at 20 µM in data set [1] is 88.9 min. Besides, the microsomal CLint at 20 µM in data set [2] stood at 15.8 µL/min/mg. Further, the CC50 at 72 h in data set [3] turned out to be 70.3 µM.
`CCCCN(Cc1ccccc1)c1nc(=O)c2cc(C(F)(F)F)cc([N+](=O)[O-])c2s1`: the MIC in the data set on Mycolicibacterium vaccae was 0.0286 µM (≈ 0.0125 µg/mL). Further, in data set [3], the half-maximal cytotoxic concentration (CC50) at 72 h was above 114 µM.
